Where two headings read alike, the source gives them in different places.
What was measured:
recombinant rhodesain = molecular target: T1, recombinant rhodesain (Trypanosoma brucei rhodesiense, UniProt Q95PM0); assay: Enzyme assay against recombinant rhodesain, fluorogenic substrate Cbz-Phe-Arg-AMC; format: biochemical; conditions: for inhibition at 100 µM: read-out: Rhodesain Percentage of Inhibition at 100 μM
T1 construct: Rhodesain was recombinantly expressed as previously described; made in house
Protocol: All compounds 1-8a-b were tested against recombinant rhodesain [34] by using Cbz-Phe-Arg-AMC as a fluorogenic substrate (Table 1). First, a preliminary screening at a fixed inhibitor concentration of 100 μM was performed.
An equivalent volume of DMSO was used as the negative control, and E-64, an irreversible inhibitor of clan CA family C1 cysteine proteases, was used as the positive control. For compounds that inhibited the enzyme activity at least 50% at […], continuous assays were performed at seven different concentrations to determine dissociation constants.
Preliminary screening with rhodesain was performed with 100 µM inhibitor concentrations using an equivalent amount of DMSO as negative control. Rhodesain was recombinantly expressed as previously described. Product release from substrate hydrolysis (Cbz-Phe-Arg-AMC, 10 µM) was determined continuously over a period of 10 min. […] The assay buffer contained 50 mM sodium acetate, pH = 5.5, 5 mM EDTA, 200 mM NaCl, and 0.005% Brij. The enzyme buffer contained 5 mM DTT rather than Brij. Product formation was monitored continuously for 10 min at room temperature. Inhibitor solutions were prepared from stocks in DMSO. Each independent assay was performed twice in duplicate in 96-well plates in a total volume of 200 µL. Fluorescence of the product AMC of the substrate hydrolyses was measured using an Infinite 200 PRO microplate reader (Tecan, Männedorf, Switzerland) at room temperature with a 380 nm excitation filter and a 460 nm emission filter.

[1] = molecular target: T2, recombinant FP-2 (falcipain-2) (Plasmodium falciparum, UniProt Q8I6U4); assay: FP-2 inhibition assay, fluorogenic substrate Cbz-Leu-Arg-AMC; format: biochemical; conditions: 30 nM FP-2, Cbz-Leu-Arg-AMC 25 µM, pH 5.5
T2 construct: recombinant FP-2, which was expressed and purified as previously reported; made in house
T2 sequence (Q8I6U4 244-484): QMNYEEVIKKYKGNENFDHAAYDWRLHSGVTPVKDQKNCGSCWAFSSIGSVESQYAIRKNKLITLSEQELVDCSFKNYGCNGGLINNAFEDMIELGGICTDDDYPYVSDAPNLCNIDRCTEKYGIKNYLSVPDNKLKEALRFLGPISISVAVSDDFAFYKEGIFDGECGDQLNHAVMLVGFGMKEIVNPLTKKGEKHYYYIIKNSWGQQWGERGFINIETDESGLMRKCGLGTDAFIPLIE
Protocol: Compounds were tested for inhibition of recombinant FP-2, which was expressed and purified as previously reported. Stock solutions of the compounds, substrate, and the positive control E64 (Sigma Aldrich, St. Louis, MO, USA) were prepared at 10 mM in 100% DMSO. The compounds were incubated in 96-well white flat-bottom plates with 30 nM recombinant FP-2 for 10 min at room temperature in an assay buffer of 100 mM sodium acetate, pH 5.5, with 5 mM DTT. After incubation, the fluorogenic substrate Cbz-Leu-Arg-AMC (R&D Systems, Minneapolis, MN, USA) was added at a concentration of 25 µM in a final assay volume of 200 µL. Fluorescence was monitored with a Varioskan Flash (ThermoScientific, Waltham, MA, USA) with excitation 355 nm and emission 460 nm. The IC50 values were calculated using GraphPad Prism v. 6 (GraphPad Software Inc., San Diego, CA, USA)) based on a sigmoidal dose response curves.

[2] = tested on: Bloodstream T. brucei parasites (T. b. brucei); assay: Antitrypanosomal activity, ATPlite cell viability assay; format: cell-based; conditions: Trypanosoma brucei
Protocol: The final compound concentrations in the microplates were 33.3 µM to 65 nM.
Bloodstream T. brucei parasites were incubated in the presence of various concentrations of the tested compounds and after 24 h or 48 h cell viability was determined using the ATPlite (PerkinElmer, Waltham, MA, USA) assay. Chlorhexidine served as positive control. […] Cell viability data was normalized to the untreated controls and analyzed using GraphPad Prism. Whenever possible, data were fitted by log(inhibitor) vs response nonlinear fit (solid lines) and IC50 values were calculated.

[3] = inhibitor 100 μM, n.i. = no inhibition
[4] = 24 h incubation, ATPlite cell viability, read-out: Antitrypanosomal IC50 (24 h)

T1 sequence (Q95PM0 entry or part of it): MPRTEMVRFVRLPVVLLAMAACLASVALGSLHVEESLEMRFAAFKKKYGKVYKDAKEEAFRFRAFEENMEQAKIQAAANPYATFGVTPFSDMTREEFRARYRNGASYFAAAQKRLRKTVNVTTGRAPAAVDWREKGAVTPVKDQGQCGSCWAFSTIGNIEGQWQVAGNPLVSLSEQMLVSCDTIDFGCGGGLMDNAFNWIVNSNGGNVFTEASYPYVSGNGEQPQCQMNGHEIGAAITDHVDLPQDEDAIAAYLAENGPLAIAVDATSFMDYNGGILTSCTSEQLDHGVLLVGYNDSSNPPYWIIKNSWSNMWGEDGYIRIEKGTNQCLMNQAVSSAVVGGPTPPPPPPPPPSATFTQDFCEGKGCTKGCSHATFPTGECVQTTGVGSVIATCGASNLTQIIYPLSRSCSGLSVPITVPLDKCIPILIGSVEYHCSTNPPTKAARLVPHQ

For Cc1cn(CCC(=O)NC2(C#N)CC2)c2ccccc12 [7b, N-(1-Cyanocyclopropyl)-3-(3-methyl-1H-indole-1-yl)propanamide], which inhibition at 100 µM (recombinant rhodesain) is on record?
The inhibition at 100 µM was 9.5%.

With N#CC1(NC(=O)Cn2ccc3cc(F)ccc32)CC1 [8a, N-(1-cyanocyclopropyl)-2-(5-fluoro-1H-indol-1-yl)acetamide] as the molecule, how does the inhibition at 100 µM (recombinant rhodesain) read?
Its inhibition at 100 µM is 4.5%.

What does the source list for N#CC1(NC(=O)Cn2ccc3ccccc32)CC1 [5a, N-(1-Cyanocyclopropyl)-2-(1H-indol-1-yl)acetamide]?
inhibition at 100 µM (recombinant rhodesain; [3]): 6.2%; IC50 [1]: > 50 µM

For Cc1cc2ccccc2n1CC(=O)NC1(C#N)CC1 [6a, N-(1-Cyanocyclopropyl)-2-(2-methyl-1H-indol-1-yl)acetamide], which “Rhodesain Percentage of Inhibition at 100 μM” value (recombinant rhodesain; [3]) is on record?
The value was “n.i”.

And the IC50 [1]?
The IC50 was > 50 µM.

For N#CC1(NC(=O)CCn2ccc3ccccc32)CC1 [5b, N-(1-Cyanocyclopropyl)-3-(1H-indol-1-yl)propanamide], which inhibition at 100 µM (recombinant rhodesain; [3]) is on record?
Its inhibition at 100 µM is 4.4%.

And the IC50 [1]?
The IC50 was > 50 µM.

And the melting point?
Its melting point is 139 to 141 °C.

Which inhibition at 100 µM (recombinant rhodesain) does the source give for N#CC1(NC(=O)CCn2ccc3cc(F)ccc32)CC1 [8b, N-(1-Cyanocyclopropyl)-3-(5-fluoro-1H-indol-1-yl)propanamide] here?
The inhibition at 100 µM was 9.6%.

Which IC50 [1] does the source give for Cc1cc2ccccc2n1CC(=O)N[C@H](C#N)CCc1ccccc1 [2a, N-((S)-1-Cyano-3-phenylpropyl)-2-(2-methyl-1H-indol-1-yl)acetamide] here?
The IC50 was > 50 µM.

And the melting point?
The melting point was 131 to 133 °C.

For Cc1cn(CCC(=O)N[C@H](C#N)CCc2ccccc2)c2ccccc12 [3b, N-((S)-1-Cyano-3-phenylpropyl)-3-(3-methyl-1H-indol-1-yl)propanamide], which inhibition at 100 µM (recombinant rhodesain) is on record?
The inhibition at 100 µM was 7.8%.

And the melting point?
The melting point was 130 to 132 °C.

With N#C[C@H](CCc1ccccc1)NC(=O)Cn1ccc2cc(F)ccc21 [4a, N-((S)-1-Cyano-3-phenylpropyl)-2-(5-fluoro-1H-indol-1-yl)acetamide] as the molecule, how does the inhibition at 100 µM (recombinant rhodesain) read?
Its inhibition at 100 µM is 18.7%.

What about the melting point of the same molecule?
The melting point was 150 to 152 °C.

For Cc1cn(CC(=O)NC2(C#N)CC2)c2ccccc12 [7a, N-(1-Cyanocyclopropyl)-2-(3-methyl-1H-indol-1-yl)acetamide], which “Rhodesain Percentage of Inhibition at 100 μM” value (recombinant rhodesain; [3]) is on record?
The value was “n.i”.

And the IC50 [1]?
Its IC50 is > 50 µM.

Which results are given for [H]/N=C(\N/C(=N/[H])NCCCCCCNC(=N)NC(=N)Nc1ccc(Cl)cc1)Nc1ccc(Cl)cc1 [Chlorhexidine, chlorhexidine, reference compound]?
IC50 ([2]; 48 h, read-out: Antitrypanosomal IC50 (48 h)): 0.7 ± 0.2 µM; IC50 [2, 4]: 0.98 µM

For CC(C)C[C@H](NC(=O)[C@H]1O[C@@H]1C(=O)O)C(=O)NCCCCN=C(N)N [E-64, reference compound], which Ki (recombinant rhodesain; Cbz-Phe-Arg-AMC 10 µM, pH 5.5, progress curves 10 min, Ki = IC50/(1 + [S]/Km)) is on record?
The Ki was 0.033 ± 0.007 µM.

And the IC50 [1]?
Its IC50 is 0.051 µM.

For Cc1cn(CC(=O)N[C@H](C#N)CCc2ccccc2)c2ccccc12 [3a, N-((S)-1-Cyano-3-phenylpropyl)-2-(3-methyl-1H-indol-1-yl)acetamide], which IC50 [1] is on record?
Its IC50 is > 50 µM.

And the melting point?
Its melting point is 114 to 115 °C.

Which IC50 [1] does the source give for N#C[C@H](CCc1ccccc1)NC(=O)Cn1ccc2ccccc21 [1a, N-((S)-1-Cyano-3-phenylpropyl)2-(1H-indol-1-yl)acetamide] here?
The IC50 was > 50 µM.

And the IC50 ([2]; 24 h incubation, ATPlite cell viability, fitted beyond tested range (max 33.3 µM), read-out: Antitrypanosomal IC50 (24 h))?
The IC50 was 1500 ± 2000 µM.

And the IC50 ([2]; 48 h incubation, ATPlite cell viability, fitted beyond tested range (max 33.3 µM), read-out: Antitrypanosomal IC50 (48 h))?
Its IC50 is 280 ± 290 µM.

What about the melting point of the same molecule?
The melting point was 120 to 121 °C.

With N#C[C@H](CCc1ccccc1)NC(=O)CCn1ccc2cc(F)ccc21 [4b, N-((S)-1-Cyano-3-phenylpropyl)-3-(5-fluoro-1H-indol-1-yl)propanamide] as the molecule, how does the inhibition at 100 µM (recombinant rhodesain) read?
Its inhibition at 100 µM is 1.9%.

What about the melting point of the same molecule?
Its melting point is 142 to 143 °C.

What does the source list for N#C[C@H](CCc1ccccc1)NC(=O)CCn1ccc2ccccc21 [1b, N-((S)-1-Cyano-3-phenylpropyl)-3-(1H-indol-1-yl)propanamide]?
Rhodesain Percentage of Inhibition at 100 μM (recombinant rhodesain; [3]): n.i.; IC50 [1]: > 50 µM; melting point: 155 to 156 °C

For Cc1cc2ccccc2n1CCC(=O)N[C@H](C#N)CCc1ccccc1 [2b, N-((S)-1-Cyano-3-phenylpropyl)-3-(2-methyl-1H-indol-1-yl)propanamide], which IC50 [1] is on record?
The IC50 was 40.4 µM.

And the IC50 [2, 4]?
Its IC50 is 12 ± 0.7 µM.

And the IC50 ([2]; 48 h incubation, ATPlite cell viability, read-out: Antitrypanosomal IC50 (48 h))?
Its IC50 is 12 ± 3 µM.

What about the melting point of the same molecule?
Its melting point is 144 to 145 °C.
